Literature values, collected in patent US12716021B2, “Aqueous modified acid compositions and methods of using the same” (FLUID ENERGY GROUP LTD., priority 2019, dated 2026).

Settings: death in 2-3 minutes

In the case of `Cl` [hydrogen chloride gas, hydrogen chloride], the “levels at which death can occur” value is listed as 1300-2000 ppm.
